{
  "source": "patent US8288552B2",
  "about": "“Dihydropyridone amidesas P2X7 modulators” (Roche Palo Alto LLC, priority 2008, dated 2012)",
  "data": [
    {"biological_target": "T1, P2X7 (UniProt Q99572)", "T1 sequence (Q99572 1-595)": "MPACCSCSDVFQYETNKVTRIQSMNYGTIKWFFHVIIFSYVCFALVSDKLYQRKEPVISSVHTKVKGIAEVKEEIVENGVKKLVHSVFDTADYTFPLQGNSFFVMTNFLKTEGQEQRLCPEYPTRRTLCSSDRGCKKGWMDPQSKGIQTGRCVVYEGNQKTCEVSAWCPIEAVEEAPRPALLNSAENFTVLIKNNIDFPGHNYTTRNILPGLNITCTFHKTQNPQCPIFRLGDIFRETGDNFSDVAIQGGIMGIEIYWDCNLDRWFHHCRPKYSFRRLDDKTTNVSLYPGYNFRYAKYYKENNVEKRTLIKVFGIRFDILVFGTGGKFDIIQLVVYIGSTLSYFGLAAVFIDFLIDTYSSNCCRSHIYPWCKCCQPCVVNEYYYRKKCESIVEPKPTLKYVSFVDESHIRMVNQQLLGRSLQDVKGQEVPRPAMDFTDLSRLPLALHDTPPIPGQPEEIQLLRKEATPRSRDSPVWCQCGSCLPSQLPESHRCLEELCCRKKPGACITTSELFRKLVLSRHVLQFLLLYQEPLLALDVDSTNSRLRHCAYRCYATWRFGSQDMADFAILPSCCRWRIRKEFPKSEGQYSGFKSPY", "test": "P2X7 pKi of Table 1", "assay_type": "cell-based", "method_in_brief": "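Human P2X7 in 1321N1 cells and rat P2X7 in HEK293 cells, loaded with fluo-3 for 1 hr at 37° C, then exposed to antagonist for 20 min at room temperature. BzATP agonist was used at 100 μM final (human) or 5 μM final (rat), with fluorescence read for 5 min. The response was normalized to maximal fluorescence evoked by 5 μM ionomycin.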", "values": [
      {"smiles": "Cc1ccccc1CNC(=O)C1=CNC(=O)C[C@H]1c1cccc(F)c1", "note": "[Compound 83, (S)-4-(3-Fluoro-phenyl)-6-oxo-1,4,5,6-tetrahydro-pyridine-3-carboxylic acid 2-methyl-benzylamide]", "pKi": 6.17},
      {"smiles": "O=C1C[C@@H](c2cccc(F)c2)C(C(=O)NCc2ccccc2Cl)=CN1", "note": "[Compound 84, (S)-4-(3-Fluoro-phenyl)-6-oxo-1,4,5,6-tetrahydro-pyridine-3-carboxylic acid 2-chloro-benzylamide]", "pKi": 6.365},
      {"smiles": "CC(=O)COc1cc(NC(=O)C2=CNC(=O)C[C@H]2c2cccc(F)c2)c(C)cc1F", "note": "[Compound 85, (S)-4-(3-Fluoro-phenyl)-6-oxo-1,4,5,6-tetrahydro-pyridine-3-carboxylic acid[4-fluoro-2-methyl-5-(2-oxo-propoxy)-phenyl]-amide]", "pKi": 6.705},
      {"smiles": "Cc1c(F)cccc1NC(=O)C1=CNC(=O)C[C@H]1c1ccc(F)cc1", "note": "[Compound 87, (S)-4-(4-Fluoro-phenyl)-6-oxo-1,4,5,6-tetrahydro-pyridine-3-carboxylic acid(3-fluoro-2-methyl-phenyl)-amide]", "pKi": 6.63},
      {"smiles": "Cc1c(Cl)cccc1NC(=O)C1=CNC(=O)C[C@H]1c1cccc(F)c1", "note": "[Compound 88, (S)-4-(3-Fluoro-phenyl)-6-oxo-1,4,5,6-tetrahydro-pyridine-3-carboxylic acid(3-chloro-2-methyl-phenyl)-amide]", "pKi": 7.915},
      {"smiles": "Cc1ccc([C@@H](C)O)cc1NC(=O)C1=CNC(=O)C[C@H]1c1ccc(F)cc1", "note": "[Compound 89, (S)-4-(4-Fluoro-phenyl)-6-oxo-1,4,5,6-tetrahydro-pyridine-3-carboxylic acid[5-((R)-1-hydroxy-ethyl)-2-methyl-phenyl]-amide]", "pKi": 7.443},
      {"smiles": "Cc1ccc([C@H](C)O)cc1NC(=O)C1=CNC(=O)C[C@H]1c1ccc(F)cc1", "note": "[Compound 90, (S)-4-(4-Fluoro-phenyl)-6-oxo-1,4,5,6-tetrahydro-pyridine-3-carboxylic acid[5-((S)-1-hydroxy-ethyl)-2-methyl-phenyl]-amide]", "pKi": 7.19},
      {"smiles": "COc1cc(C)c(NC(=O)C2=CN(C)C(=O)C(C)C2c2ccc(F)cc2)cc1OC", "note": "(stereo not shown) [Compound 91, 4-(4-Fluoro-phenyl)-1,5-dimethyl-6-oxo-1,4,5,6-tetrahydro-pyridine-3-carboxylic acid(4,5-dimethoxy-2-methyl-phenyl)-amide]", "pKi": 5.65},
      {"smiles": "Cc1ccc(Cl)cc1NC(=O)C1=CNC(=O)C[C@H]1c1cccc(F)c1", "note": "[Compound 92, (S)-4-(3-Fluoro-phenyl)-6-oxo-1,4,5,6-tetrahydro-pyridine-3-carboxylic acid(5-chloro-2-methyl-phenyl)-amide]", "pKi": 6.995},
      {"smiles": "CC(=O)c1ccc(C)c(NC(=O)C2=CNC(=O)C[C@H]2c2ccc(F)cc2)c1", "note": "[Compound 93, (S)-4-(4-Fluoro-phenyl)-6-oxo-1,4,5,6-tetrahydro-pyridine-3-carboxylic acid(5-acetyl-2-methyl-phenyl)-amide]", "pKi": 6.86},
      {"smiles": "Cc1c(Cl)cccc1NC(=O)C1=CNC(=O)C[C@H]1c1ccc(F)cc1", "note": "[Compound 94, (S)-4-(4-Fluoro-phenyl)-6-oxo-1,4,5,6-tetrahydro-pyridine-3-carboxylic acid(3-chloro-2-methyl-phenyl)-amide]", "pKi": 7.83},
      {"smiles": "O=C1C[C@@H](c2ccc(F)cc2)C(C(=O)Nc2ccccc2C(F)(F)F)=CN1", "note": "[Compound 95, (S)-4-(4-Fluoro-phenyl)-6-oxo-1,4,5,6-tetrahydro-pyridine-3-carboxylic acid(2-trifluoromethyl-phenyl)-amide]", "pKi": 6.26},
      {"smiles": "O=C1C[C@@H](c2ccc(F)cc2)C(C(=O)NCc2ccccc2Cl)=CN1", "note": "[Compound 97, (S)-4-(4-Fluoro-phenyl)-6-oxo-1,4,5,6-tetrahydro-pyridine-3-carboxylic acid 2-chloro-benzylamide]", "pKi": 6.16},
      {"smiles": "Cc1ccc(OC(F)(F)F)cc1NC(=O)C1=CNC(=O)C[C@H]1c1ccc(F)cc1", "note": "[Compound 99, (S)-4-(4-Fluoro-phenyl)-6-oxo-1,4,5,6-tetrahydro-pyridine-3-carboxylic acid(2-methyl-5-trifluoromethoxy-phenyl)-amide]", "pKi": 6.755},
      {"smiles": "Cc1c(CCO)cccc1NC(=O)C1=CNC(=O)C[C@H]1c1ccc(F)cc1", "note": "[Compound 100, (S)-4-(4-Fluoro-phenyl)-6-oxo-1,4,5,6-tetrahydro-pyridine-3-carboxylic acid[3-(2-hydroxy-ethyl)-2-methyl-phenyl]-amide]", "pKi": 6.803},
      {"smiles": "Cc1ccccc1NC(=O)C1=CNC(=O)C[C@H]1c1ccc(F)cc1", "note": "[Compound 101, (S)-4-(4-Fluoro-phenyl)-6-oxo-1,4,5,6-tetrahydro-pyridine-3-carboxylic acid o-tolylamide]", "pKi": 6.415},
      {"smiles": "CCc1c(NC(=O)C2=CNC(=O)CC2c2ccc(F)cc2)cccc1OC", "note": "(stereo not shown) [Compound 102, 4-(4-Fluoro-phenyl)-6-oxo-1,4,5,6-tetrahydro-pyridine-3-carboxylic acid(2-ethyl-3-methoxy-phenyl)-amide]", "pKi": 7.316},
      {"smiles": "Cc1cccc(NC(=O)C2=CNC(=O)C[C@H]2c2ccc(F)cc2)c1Cl", "note": "[Compound 103, (S)-4-(4-Fluoro-phenyl)-6-oxo-1,4,5,6-tetrahydro-pyridine-3-carboxylic acid(2-chloro-3-methyl-phenyl)-amide]", "pKi": 7.44},
      {"smiles": "Cc1cc(Cl)c(CO)cc1NC(=O)C1=CNC(=O)C[C@H]1c1ccc(F)cc1", "note": "[Compound 104, (S)-4-(4-Fluoro-phenyl)-6-oxo-1,4,5,6-tetrahydro-pyridine-3-carboxylic acid(4-chloro-5-hydroxymethyl-2-methyl-phenyl)-amide]", "pKi": 7.21},
      {"smiles": "Cc1cc(CCO)ccc1NC(=O)C1=CNC(=O)C[C@H]1c1ccc(F)cc1", "note": "[Compound 105, (S)-4-(4-Fluoro-phenyl)-6-oxo-1,4,5,6-tetrahydro-pyridine-3-carboxylic acid[4-(2-hydroxy-ethyl)-2-methyl-phenyl]-amide]", "pKi": 6.77},
      {"smiles": "COc1cccc(NC(=O)C2=CNC(=O)C[C@H]2c2ccc(F)cc2)c1C", "note": "[Compound 106, (S)-4-(4-Fluoro-phenyl)-6-oxo-1,4,5,6-tetrahydro-pyridine-3-carboxylic acid(3-methoxy-2-methyl-phenyl)-amide]", "pKi": 7.375},
      {"smiles": "Cc1c(CO)cccc1NC(=O)C1=CNC(=O)C[C@@H]1c1ccc(F)cc1", "note": "[Compound 107, (R)-4-(4-Fluoro-phenyl)-6-oxo-1,4,5,6-tetrahydro-pyridine-3-carboxylic acid(3-hydroxymethyl-2-methyl-phenyl)-amide]", "pKi": 5.36},
      {"smiles": "COc1cc(NC(=O)C2=CNC(=O)C[C@H]2c2ccc(F)cc2)ccc1F", "note": "[Compound 108, (S)-4-(4-Fluoro-phenyl)-6-oxo-1,4,5,6-tetrahydro-pyridine-3-carboxylic acid(4-fluoro-3-methoxy-phenyl)-amide]", "pKi": 6.11},
      {"smiles": "COc1cc(NC(=O)C2=CNC(=O)C[C@H]2c2ccc(F)cc2)c(Br)cc1F", "note": "[Compound 109, (S)-4-(4-Fluoro-phenyl)-6-oxo-1,4,5,6-tetrahydro-pyridine-3-carboxylic acid(2-bromo-4-fluoro-5-methoxy-phenyl)-amide]", "pKi": 7.15},
      {"smiles": "Cc1c(NC(=O)C2=CNC(=O)C[C@H]2c2ccc(F)cc2)cccc1C(=O)N(C)C", "note": "[Compound 110, (S)-4-(4-Fluoro-phenyl)-6-oxo-1,4,5,6-tetrahydro-pyridine-3-carboxylic acid(3-dimethylcarbamoyl-2-methyl-phenyl)-amide]", "pKi": 5.43},
      {"smiles": "COc1ccc(NC(=O)C2=CNC(=O)C[C@H]2c2ccc(F)cc2)c(C)c1", "note": "[Compound 111, (S)-4-(4-Fluoro-phenyl)-6-oxo-1,4,5,6-tetrahydro-pyridine-3-carboxylic acid(4-methoxy-2-methyl-phenyl)-amide]", "pKi": 6.5},
      {"smiles": "Cc1cc(Cl)c(CCO)cc1NC(=O)C1=CNC(=O)C[C@H]1c1ccc(F)cc1", "note": "[Compound 112, (S)-4-(4-Fluoro-phenyl)-6-oxo-1,4,5,6-tetrahydro-pyridine-3-carboxylic acid[4-chloro-5-(2-hydroxy-ethyl)-2-methyl-phenyl]-amide]", "pKi": 7.52},
      {"smiles": "COc1cc(C)c(C)c(NC(=O)C2=CNC(=O)C[C@H]2c2ccc(F)cc2)c1", "note": "[Compound 113, (S)-4-(4-Fluoro-phenyl)-6-oxo-1,4,5,6-tetrahydro-pyridine-3-carboxylic acid(5-methoxy-2,3-dimethyl-phenyl)-amide]", "pKi": 8.035},
      {"smiles": "Cc1cc(C)c(OCCO)cc1NC(=O)C1=CNC(=O)C[C@H]1c1ccc(F)cc1", "note": "[Compound 114, (S)-4-(4-Fluoro-phenyl)-6-oxo-1,4,5,6-tetrahydro-pyridine-3-carboxylic acid [5-(2-hydroxy-ethoxy)-2,4-dimethyl-phenyl]-amide]", "pKi": 7.815},
      {"smiles": "Cc1c(C#N)cccc1NC(=O)C1=CNC(=O)C[C@H]1c1ccc(F)cc1", "note": "[Compound 115, (S)-4-(4-Fluoro-phenyl)-6-oxo-1,4,5,6-tetrahydro-pyridine-3-carboxylic acid(3-cyano-2-methyl-phenyl)-amide]", "pKi": 5.815},
      {"smiles": "Cc1cc(Cl)c(OCC(C)O)cc1NC(=O)C1=CNC(=O)C[C@H]1c1cccc(F)c1", "note": "(stereo partly drawn) [Compound 116, (S)-4-(3-Fluoro-phenyl)-6-oxo-1,4,5,6-tetrahydro-pyridine-3-carboxylic acid[4-chloro-5-(2-hydroxy-propoxy)-2-methyl-phenyl]-amide]", "pKi": 7.21}
    ]}
  ]
}
